Assay results: ChEMBL document CHEMBL3885861, “Open TG-GATES”

Species: Rattus norvegicus
Assay: Open TG-GATES - Regimen: Daily Repeat
Format: toxicity, organism-based, Sprague-Dawley
Design: regimen Daily Repeat, gender Male, age 6 weeks
Conditions: in vivo, po, 300 mg/kg, route gavage, dose level Middle; for APTT / Bas / Eos / Fbg / Hb / Ht / Lym / MCH / MCHC / MCV / Mono / Neu / PT / Plat / RBC / Ret / WBC: tissue Blood
[1] = 72 h, tissue Kidney, time 3 day
[2] = 72 h, tissue Plasma, time 3 day

Compound: O=C(N[C@H](CO)[C@H](O)c1ccc([N+](=O)[O-])cc1)C(Cl)Cl [CHLORAMPHENICOL]
- TERMINAL_BW (72 h, time 3 day): 251.2 g
- APTT (72 h, time 3 day): 16.2 s
- Bas (72 h, time 3 day): 0%
- Eos (72 h, time 3 day): 1%
- Fbg (72 h, time 3 day): 294.6 mg/dL
- Hb (72 h, time 3 day): 13.3 g/dL
- Ht (72 h, time 3 day): 40.8%
- Lym (72 h, time 3 day): 83.4%
- MCH (72 h, time 3 day): 21.2 pg
- MCHC (72 h, time 3 day): 32.6%
- MCV (72 h, time 3 day): 65.1 fL
- Mono (72 h, time 3 day): 3.4%
- Neu (72 h, time 3 day): 11.6%
- PT (72 h, time 3 day): 14.4 s
- Plat (72 h, time 3 day): 128.6 x10_4/uL
- RBC (72 h, time 3 day): 627.6 x10_4/ul
- Ret (72 h, time 3 day): 4.4%
- WBC (72 h, time 3 day): 77.4 x10_2/uL
- KIDNEY_L [1]: 1.1 g
- KIDNEY_R [1]: 1.1 g
- KIDNEY_TOTAL [1]: 2.1 g
- LIVER (72 h, tissue Liver, time 3 day): 12.1 g
- A/G [2]: 0.9
- ALP [2]: 1601.8 IU/L
- ALT [2]: 49.4 IU/L
- AST [2]: 72.8 IU/L
- BUN [2]: 16.6 mg/dL
- CRE [2]: 0.2 mg/dL
- Ca [2]: 10.9 mg/dL
- Cl [2]: 105.6 meq/L
- DBIL [2]: 0.01 mg/dL
- GLC [2]: 169.2 mg/dL
- IP [2]: 7.6 mg/dL
- K [2]: 4.2 meq/L
- LDH [2]: 84.2 IU/L
- Na [2]: 141.2 meq/L
- PL [2]: 150.4 mg/dL
- RALB [2]: 2.6 g/dL
- TBIL [2]: 0.052 mg/dL
- TC [2]: 88.4 mg/dL
- TG [2]: 66.6 mg/dL
- TP [2]: 5.6 g/dL
- gamma-GTP [2]: 1 IU/L
- TERMINAL_BW ([…], time 7 day): 277.3 g
- TERMINAL_BW ([…], time 14 day): 349.1 g
- TERMINAL_BW ([…], time 28 day): 411.6 g
- APTT ([…], time 7 day): 16.9 s
- Bas ([…], time 7 day): 0%
- Eos ([…], time 7 day): 1%
- Fbg ([…], time 7 day): 324 mg/dL
- Hb ([…], time 7 day): 13.7 g/dL
- Ht ([…], time 7 day): 42.3%
- Lym ([…], time 7 day): 78.2%
- MCH ([…], time 7 day): 20.5 pg
- MCHC ([…], time 7 day): 32.4%
- MCV ([…], time 7 day): 63.3 fL
- Mono ([…], time 7 day): 3.6%
- Neu ([…], time 7 day): 17%
- PT ([…], time 7 day): 14.5 s
- Plat ([…], time 7 day): 120.6 x10_4/uL
- RBC ([…], time 7 day): 668.6 x10_4/ul
- Ret ([…], time 7 day): 4.8%
- WBC ([…], time 7 day): 66.9 x10_2/uL
- APTT ([…], time 14 day): 14.9 s
- Bas ([…], time 14 day): 0%
- Eos ([…], time 14 day): 1.4%
- Fbg ([…], time 14 day): 307 mg/dL
- Hb ([…], time 14 day): 14.2 g/dL
- Ht ([…], time 14 day): 43.7%
- Lym ([…], time 14 day): 84.8%
- MCH ([…], time 14 day): 20.5 pg
- MCHC ([…], time 14 day): 32.5%
- MCV ([…], time 14 day): 63.1 fL
- Mono ([…], time 14 day): 2.2%
- Neu ([…], time 14 day): 11.4%
- PT ([…], time 14 day): 14.8 s
- Plat ([…], time 14 day): 123.5 x10_4/uL
- RBC ([…], time 14 day): 692.8 x10_4/ul
- Ret ([…], time 14 day): 4.7%
- WBC ([…], time 14 day): 80 x10_2/uL
- APTT ([…], time 28 day): 15.7 s
- Bas ([…], time 28 day): 0%
- Eos ([…], time 28 day): 1.2%
- Fbg ([…], time 28 day): 296.2 mg/dL
- Hb ([…], time 28 day): 15.1 g/dL
- Ht ([…], time 28 day): 44.3%
